System: NK cells and T cells
Experiment: NK and T cell numbers, maturation and FasL expression by flow cytometry after two-day treatment
Assay type: in vivo, mice
Description: FIGS. 5A-5I show the effects of SHIP1 inhibitor as a chemotherapeutic. […] FIG. 5D and FIG. 5E show the representative histograms and box-and-whisker plots of FasL expression by NK cells from C56BL/6 (p=0.0002; Unpaired t test with Welch's correction) or RAG1−/− (p<0.0001; Mann-Whitney U test) tumor challenged, SHIP inhibitor or vehicle treated hosts. […] (NK cells p=0.0192; Unpaired t test with Welch's correction. T cells p=0.0659; Mann-Whitney U test). Additionally, FIGS. 5A-5G show the analysis by flow cytometry on day 3 after hosts receive SHIP inhibitor or vehicle for two consecutive days. NK cells are defined as NK1.1+CD3ε−. The graphs are representative of at least two independent experiments with at least four SHIP inhibitor and vehicle treated mice. […] Viability is expressed as frequency at a given concentration expressed as a percentage of solvent only treated cells. The kill curve summarizes pooled data from three independent experiments using six replicate wells/concentration with mean ±SEM indicated (n=18 per group. One-way ANOVA with Dunnett's multiple comparisons. 0 pM vs. 20 pM Adjusted p value =0.0001. 0 pM vs. 15 pM Adjusted p value =0.0001. 0 pM vs. 10 pM Adjusted p value =0.0001. 0 pM vs. 7.5 pM Adjusted p value =0.0001. 0 pM vs. 5 pM Adjusted p value =0.0001).
NK cells are able to directly kill target cells through several different mechanisms including both production of perforin and granzymes and induction of apoptosis via Fas-FasL signaling (Arase, H. et al., Fas-mediated cytotoxicity by freshly isolated natural killer cells. J Exp Med. (1995); 181: 1235-1238; Zamai, L. et al., Natural killer (NK) cell-mediated cytotoxicity: differential use of TRAIL and Fas ligand by immature and mature primary human NK cells. J Exp Med. (1998); 188: 2375-2380). […] SHIP1 was recently shown to be recruited to CD95/Fas to set a threshold for induction of Caspase 8, and thereby, a threshold for induction of apoptosis (Park, M. Y. et al., Impaired T-cell survival promotes mucosal inflammatory disease in SHIP1-deficient mice. Mucosal Immunol. (2014); 7: 1429-1439). This pathway might contribute to 3AC-mediated killing of lymphoma cells in a host-extrinsic fashion and, possibly, even to NK cell mediated clearance of tumor in vivo. To explore this possibility, whether 3AC induces FasL, the death ligand, on cytotoxic host cells present in the tumor site was examined. […] This is consistent with what has been previously reported with multiple myeloma, myeloid leukemias and T cell leukemia, and that others have recently reported in preB ALL (Park, M. Y. et al., Impaired T-cell survival promotes mucosal inflammatory disease in SHIP1-deficient mice. Mucosal Immunol. (2014); 7: 1429-1439; Brooks, R. et al., SHIP1 inhibition increases immunoregulatory capacity and triggers apoptosis of hematopoietic cancer cells. J Immunol. (2010); 184: 3582-3589; Fuhler, G. M. et al., Therapeutic potential of SH2 domain-containing inositol-5′-phosphatase 1 (SHIP1) and SHIP2 inhibition in cancer. Mol Med. (2012); 18: 65-75; Chen, Z. et al, Signalling thresholds and negative B-cell selection in acute lymphoblastic leukaemia. Nature. (2015)) . […] Therefore, the improved tumor clearance and survival following acute 3AC treatment in vivo may result from both a chemotherapeutic effect and enhanced immune control.

With CC(C)CCC[C@@H](C)[C@H]1CC[C@H]2[C@@H]3CCC4C[C@H](N)CC[C@]4(C)[C@H]3CC[C@]12C (stereo partly drawn) [Compound 3AC, 3-α-aminocholestane] the “FasL expression, splenic NK cells” value (C57BL/6 mice, vs vehicle) was “small, but significantly increased frequency”, the “terminal maturation of the peripheral NK cell compartment” value (spleen, naive or tumor challenged C57BL/6 hosts, vs vehicle) was “significantly increased” and the “number of NK cells at the tumor site in the peritoneal cavity” value (tumor challenged C57BL/6 hosts, vs vehicle) was “significantly increased”. For the same compound, the “FasL expression of host NK cells and T cells at the tumor site” value (tumor challenged hosts, vs vehicle) was “profound acquisition of FasL” and the “number of splenic NK cells” value (two days of treatment vs vehicle) was “decreased numbers”.

Reference: patent US11952328B2, “Selective ship inhibitors for treating disease” (THE RESEARCH FOUNDATION FOR THE STATE UNIVERSITY OF NEW YORK, priority 2018, dated 2024)
